# Laboratory results published in paper PMC3914206.
# Tests used:
# Assay type in all cases: binding
# Conditions in all cases: Compound Concentration 10 µM
# panel of 442 kinases [1] = molecular target: T1, panel of 442 kinases (Homo sapiens, UniProt O94804)
# T1 construct: purchased KINOMEscan
# Description: (§1) We assessed the selectivity of members of this scaffold using the KINOMEscan methodology across a near comprehensive panel of 442 kinases [[18,27]].
# panel of 442 kinases [2] = molecular target: T2, panel of 442 kinases (Homo sapiens, UniProt P48729)
# T2 construct: purchased KINOMEscan
# Description: as §1
# panel of 442 kinases [3] = molecular target: T3, panel of 442 kinases (Homo sapiens, UniProt Q07002)
# T3 construct: purchased KINOMEscan
# Description: as §1
# panel of 442 kinases [4] = molecular target: T4, panel of 442 kinases (Homo sapiens, UniProt Q5VT25)
# T4 construct: purchased KINOMEscan
# Description: as §1
# T2 sequence (P48729 whole entry): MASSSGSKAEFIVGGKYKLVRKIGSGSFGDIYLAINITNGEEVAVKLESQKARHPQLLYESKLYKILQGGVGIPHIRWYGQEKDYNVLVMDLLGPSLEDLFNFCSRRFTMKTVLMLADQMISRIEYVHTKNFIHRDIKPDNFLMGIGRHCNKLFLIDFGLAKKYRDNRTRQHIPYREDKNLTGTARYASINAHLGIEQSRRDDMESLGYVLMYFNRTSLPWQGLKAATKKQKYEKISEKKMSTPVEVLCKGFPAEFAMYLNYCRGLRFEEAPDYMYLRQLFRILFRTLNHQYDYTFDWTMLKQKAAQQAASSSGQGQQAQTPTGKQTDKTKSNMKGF
# T3 sequence (Q07002 whole entry): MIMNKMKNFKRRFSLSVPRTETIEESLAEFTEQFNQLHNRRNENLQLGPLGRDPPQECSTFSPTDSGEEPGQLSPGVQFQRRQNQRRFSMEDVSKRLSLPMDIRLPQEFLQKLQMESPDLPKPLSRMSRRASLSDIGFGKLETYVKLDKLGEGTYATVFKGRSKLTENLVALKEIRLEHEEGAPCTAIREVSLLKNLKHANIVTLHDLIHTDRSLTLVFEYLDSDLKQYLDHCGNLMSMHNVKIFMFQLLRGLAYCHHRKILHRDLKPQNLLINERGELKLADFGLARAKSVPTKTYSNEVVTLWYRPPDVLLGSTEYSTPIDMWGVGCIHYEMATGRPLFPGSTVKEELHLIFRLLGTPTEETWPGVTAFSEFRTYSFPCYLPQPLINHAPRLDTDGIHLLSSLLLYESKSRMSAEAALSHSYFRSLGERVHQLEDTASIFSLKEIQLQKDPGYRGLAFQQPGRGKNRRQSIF
# T4 sequence (Q5VT25 whole entry): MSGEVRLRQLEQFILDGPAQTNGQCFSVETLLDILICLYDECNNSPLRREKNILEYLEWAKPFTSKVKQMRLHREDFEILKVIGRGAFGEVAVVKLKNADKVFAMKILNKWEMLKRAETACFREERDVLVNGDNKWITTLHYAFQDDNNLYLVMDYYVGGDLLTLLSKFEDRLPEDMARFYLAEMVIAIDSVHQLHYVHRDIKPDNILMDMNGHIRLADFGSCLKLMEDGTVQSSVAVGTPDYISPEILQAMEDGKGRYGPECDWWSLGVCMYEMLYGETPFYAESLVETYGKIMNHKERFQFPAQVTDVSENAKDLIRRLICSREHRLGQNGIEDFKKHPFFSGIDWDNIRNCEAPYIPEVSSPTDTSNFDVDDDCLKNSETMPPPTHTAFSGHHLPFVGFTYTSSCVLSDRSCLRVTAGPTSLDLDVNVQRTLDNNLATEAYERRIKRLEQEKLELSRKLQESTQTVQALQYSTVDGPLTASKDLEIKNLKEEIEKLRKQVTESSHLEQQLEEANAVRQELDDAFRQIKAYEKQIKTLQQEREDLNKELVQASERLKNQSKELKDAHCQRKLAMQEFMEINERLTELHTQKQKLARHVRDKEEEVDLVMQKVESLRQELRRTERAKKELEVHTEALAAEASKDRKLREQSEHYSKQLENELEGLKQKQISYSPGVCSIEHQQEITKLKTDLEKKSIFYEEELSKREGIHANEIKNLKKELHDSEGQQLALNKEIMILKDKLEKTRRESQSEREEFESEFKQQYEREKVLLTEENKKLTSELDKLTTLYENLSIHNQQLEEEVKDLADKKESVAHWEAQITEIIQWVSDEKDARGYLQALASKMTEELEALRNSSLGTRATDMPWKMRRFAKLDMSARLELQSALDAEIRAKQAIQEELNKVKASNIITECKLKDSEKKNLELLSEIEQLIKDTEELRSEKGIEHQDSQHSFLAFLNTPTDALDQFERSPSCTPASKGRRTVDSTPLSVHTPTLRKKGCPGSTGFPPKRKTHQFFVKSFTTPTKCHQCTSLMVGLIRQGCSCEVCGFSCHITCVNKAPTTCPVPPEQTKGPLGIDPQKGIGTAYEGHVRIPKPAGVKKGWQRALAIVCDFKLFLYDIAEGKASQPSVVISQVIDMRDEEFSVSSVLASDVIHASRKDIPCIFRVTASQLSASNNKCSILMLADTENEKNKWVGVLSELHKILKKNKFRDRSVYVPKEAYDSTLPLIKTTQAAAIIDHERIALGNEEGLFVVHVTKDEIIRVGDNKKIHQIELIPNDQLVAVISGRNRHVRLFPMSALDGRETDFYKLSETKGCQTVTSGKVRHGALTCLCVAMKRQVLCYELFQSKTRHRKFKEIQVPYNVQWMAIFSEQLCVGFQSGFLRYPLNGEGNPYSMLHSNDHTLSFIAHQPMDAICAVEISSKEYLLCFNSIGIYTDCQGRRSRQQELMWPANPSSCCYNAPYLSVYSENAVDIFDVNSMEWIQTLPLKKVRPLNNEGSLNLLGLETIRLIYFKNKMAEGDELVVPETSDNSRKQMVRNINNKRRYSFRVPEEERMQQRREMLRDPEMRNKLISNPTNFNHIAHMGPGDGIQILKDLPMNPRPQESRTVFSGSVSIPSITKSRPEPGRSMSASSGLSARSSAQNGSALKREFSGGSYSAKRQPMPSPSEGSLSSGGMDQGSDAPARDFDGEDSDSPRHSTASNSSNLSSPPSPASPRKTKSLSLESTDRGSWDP
# T1 sequence (O94804 whole entry): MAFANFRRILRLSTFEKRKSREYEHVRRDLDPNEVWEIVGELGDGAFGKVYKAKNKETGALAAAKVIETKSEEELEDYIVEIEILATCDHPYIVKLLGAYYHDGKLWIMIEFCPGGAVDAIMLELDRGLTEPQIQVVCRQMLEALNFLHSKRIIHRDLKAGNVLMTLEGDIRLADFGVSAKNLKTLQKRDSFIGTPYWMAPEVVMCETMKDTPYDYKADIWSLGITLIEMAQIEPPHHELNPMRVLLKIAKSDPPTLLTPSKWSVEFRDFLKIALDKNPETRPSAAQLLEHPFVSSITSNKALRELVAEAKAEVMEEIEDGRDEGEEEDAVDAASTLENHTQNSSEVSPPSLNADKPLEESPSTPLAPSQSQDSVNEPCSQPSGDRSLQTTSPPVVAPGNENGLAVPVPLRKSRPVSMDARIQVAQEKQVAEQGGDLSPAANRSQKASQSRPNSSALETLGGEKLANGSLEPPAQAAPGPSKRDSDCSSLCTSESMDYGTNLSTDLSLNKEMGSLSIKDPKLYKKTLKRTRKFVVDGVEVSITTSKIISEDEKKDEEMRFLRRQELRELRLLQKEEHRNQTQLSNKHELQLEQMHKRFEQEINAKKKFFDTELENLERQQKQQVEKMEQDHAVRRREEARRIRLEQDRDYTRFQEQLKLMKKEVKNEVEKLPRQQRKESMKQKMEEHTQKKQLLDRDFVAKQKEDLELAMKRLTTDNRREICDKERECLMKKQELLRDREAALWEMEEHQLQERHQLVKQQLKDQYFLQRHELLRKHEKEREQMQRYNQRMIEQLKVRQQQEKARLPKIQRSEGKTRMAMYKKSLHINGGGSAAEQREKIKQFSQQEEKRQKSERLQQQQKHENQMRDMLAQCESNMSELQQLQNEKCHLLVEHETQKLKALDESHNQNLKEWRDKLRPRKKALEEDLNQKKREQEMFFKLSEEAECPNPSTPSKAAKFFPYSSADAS
SMILES,KINOMEscan: LOK (panel of 442 kinases [1]),KINOMEscan: CSNK1A1 (panel of 442 kinases [2]),KINOMEscan: PCTK3 (panel of 442 kinases [3]),KINOMEscan: MRCKA (panel of 442 kinases [4])
COc1cc(C(=O)N2CCC(N3CCN(C)CC3)CC2)ccc1Nc1ncc2c(n1)N(C)c1ccccc1C(=O)N2C [15 (LRRK2-IN-1)],100,100,100,100
COc1cc(C(=O)N2CCC(N3CCN(C)CC3)CC2)ccc1Nc1ncc2c(n1)N1CCc3cccc(c31)C(=O)N2C [Compound 24],70,,,
"COc1cc(C(=O)N2CCC(N3CCN(C)CC3)CC2)ccc1Nc1ncc2c(n1)N(C1CCCC1)c1ccccc1C(=O)N2C [Compound 25, 11-cyclopentyl-2-((2-methoxy-4-(4-(4-methylpiperazin-1-yl)piperidine-1-carbonyl)phenyl)amino)-5-methyl-5H-benzo[e]pyrimido[5,4-b][1,4]diazepin-6(11H)-one]",100,100,100,100
CCOc1cc(C(=O)N2CCC(N3CCN(C)CC3)CC2)ccc1Nc1ncc2c(n1)N(C1CCCC1)c1ccccc1C(=O)N2C [Compound 26],100,100,100,100
